{"source": "ChEMBL document CHEMBL5126551", "about": "“Spiral molecules with antimalarial activities: A review” (Eur J Med Chem, 2022)", "key": {"[1]": {"tested_on": "Plasmodium falciparum", "assay": "Antimalarial activity against chloroquine-sensitive Plasmodium falciparum 3D7 assessed as reduction in parasite growth incubated for 72 hrs by SYBR green I-based DNA quantification assay", "type": "functional, organism-based", "conditions": "3D7, 72 h"}, "[2]": {"tested_on": "Plasmodium falciparum", "assay": "Antimalarial activity against Plasmodium falciparum K1 infected in human red blood cells assessed as inhibition of parasite growth incubated for 48 hrs by Giema staining based assay", "type": "functional, organism-based, Red blood cell", "conditions": "K1, Erythrocyte"}, "[3]": {"tested_on": "Plasmodium falciparum", "assay": "Antimalarial activity against chloroquine-resistant Plasmodium falciparum FCB-2 infected in human erythrocyte assessed as inhibition of parasite growth incubated for 48 hrs by [3H]-hypoxanthine incorporation assay based liquid scintillation counter method", "type": "functional, organism-based", "conditions": "FCB-2, Erythrocyte"}, "[4]": {"tested_on": "Plasmodium falciparum", "assay": "Antimalarial activity against chloroquine, amodiaquine, quinine and artesunate-resistant Plasmodium falciparum NF-54 infected in human erythrocyte assessed as inhibition of parasite growth incubated for 48 hrs by [3H]-hypoxanthine incorporation assay based liquid scintillation counter method", "type": "functional, organism-based", "conditions": "NF-54, Erythrocyte"}, "[5]": {"tested_on": "Plasmodium falciparum", "assay": "Antimalarial activity against chloroquine-sensitive Plasmodium falciparum 3D7 infected in human erythrocyte assessed as inhibition of parasite growth incubated for 66 hrs by [3H]-hypoxanthine incorporation assay based liquid scintillation spectrometric method", "type": "functional, organism-based", "conditions": "3D7, Erythrocyte"}, "[6]": {"tested_on": "Plasmodium falciparum", "assay": "Antimalarial activity against Plasmodium falciparum infected in human […] assessed as inhibition of parasite growth incubated for 30 hrs by [3H]-hypoxanthine incorporation assay based liquid scintillation spectrometric method", "type": "functional, organism-based"}, "[7]": {"tested_on": "Plasmodium falciparum", "assay": "Antimalarial activity against chloroquine-sensitive Plasmodium falciparum NF54 infected in human red blood cells assessed as reduction in parasite growth incubated for 72 hrs by SYBR green I-based DNA quantification assay", "type": "functional, organism-based, Red blood cell", "conditions": "NF54, Erythrocyte"}, "[8]": {"tested_on": "Plasmodium falciparum", "assay": "Antimalarial activity against multidrug-resistant Plasmodium falciparum Dd2 infected in human red blood cells assessed as reduction in parasite growth incubated for 72 hrs by SYBR green I-based DNA quantification assay", "type": "functional, organism-based, Red blood cell", "conditions": "Dd2, Erythrocyte"}, "[9]": {"tested_on": "Plasmodium falciparum", "assay": "Antimalarial activity against chloroquine-sensitive Plasmodium falciparum 3D7 infected in human red blood cells assessed as reduction in parasite growth incubated for 72 hrs by SYBR green I-based DNA quantification assay", "type": "functional, organism-based, Red blood cell", "conditions": "3D7, Erythrocyte"}, "[10]": {"tested_on": "Plasmodium falciparum", "assay": "Antimalarial activity against chloroquine resistant Plasmodium falciparum K1 assessed as inhibition of parasite growth incubated for 72 hrs by HRP2-based ELISA assay", "type": "functional, organism-based", "conditions": "K1, 72 h"}, "[11]": {"tested_on": "Plasmodium falciparum", "assay": "Antimalarial activity against multidrug-resistant early ring stage Plasmodium falciparum K14 infected in human erythrocytes assessed as inhibition of parasite growth incubated for 48 hrs by [3H]-hypoxanthine incorporation assay", "type": "functional, organism-based", "conditions": "K14, Erythrocyte"}, "[12]": {"tested_on": "Plasmodium falciparum", "assay": "Antimalarial activity against drug-resistant Plasmodium falciparum K1 assessed as inhibition of parasite growth", "type": "functional, organism-based"}, "[13]": {"tested_on": "Plasmodium falciparum", "assay": "Antimalarial activity against drug-sensitive Plasmodium falciparum FCR3 assessed as inhibition of parasite growth", "type": "functional, organism-based"}, "[14]": {"tested_on": "Plasmodium falciparum", "assay": "Antimalarial activity against chloroquine and pyrimethamine resistant Plasmodium falciparum K1 infected in human red blood cells assessed as inhibition of parasite growth incubated for 72 hrs by [3H]-hypoxanthine incorporation assay based liquid scintillation counter method", "type": "functional, organism-based, Red blood cell", "conditions": "K1, Erythrocyte"}, "[15]": {"tested_on": "Plasmodium falciparum", "assay": "Antimalarial activity against chloroquine-sensitive Plasmodium falciparum NF54 infected in human red blood cells assessed as inhibition of parasite growth incubated for 72 hrs by [3H]-hypoxanthine incorporation assay based liquid scintillation counter method", "type": "functional, organism-based, Red blood cell", "conditions": "NF54, Erythrocyte"}, "[16]": {"tested_on": "Plasmodium falciparum", "assay": "Antimalarial activity against Plasmodium falciparum Cam3.I^R539T assessed as inhibition of parasite growth measured after 6 hrs", "type": "functional"}}, "data": [{"smiles": "OC(CN1CCC2(CC1)CC(O)c1ccc3ccccc3c1O2)c1ccc(F)c(F)c1", "note": "(stereo unspecified)", "values": [{"measurement": "EC50", "setting": "[1]", "result": 0.39, "unit": "µM"}]}, {"smiles": "O=C1CCCCC12Oc1c(Cl)cccc1C2=O", "note": "(stereo unspecified)", "values": [{"measurement": "IC50", "setting": "[2]", "result": 29.3, "unit": "µg/mL"}]}, {"smiles": "C[C@@H]1CC[C@]2(C[C@H]3C[C@H]4[C@@H]5CCC67OC6C(=O)CC[C@]7(C)[C@H]5CC[C@]4(C)[C@H]3[C@@H]2C)OC1", "note": "(stereo partly specified)", "values": [{"measurement": "IC50", "setting": "[3]", "result": 10.1, "unit": "µM"}, {"measurement": "IC50", "setting": "[4]", "result": 8.5, "unit": "µM"}]}, {"smiles": "CCCCCCCCCCCCCC1OC2CC(O)C=CC23C1C(=O)N3Cc1ccccc1", "note": "(stereo unspecified)", "values": [{"measurement": "IC50", "setting": "[5]", "result": 0.86, "unit": "µM"}, {"measurement": "IC50", "setting": "[6]", "result": 5.55, "unit": "µM"}]}, {"smiles": "COc1cc2c(cc1OC)C1(NCC2)C(=O)Nc2ccc(Cl)cc21", "note": "(stereo unspecified)", "values": [{"measurement": "EC50", "setting": "[7]", "result": 0.686, "unit": "µM"}, {"measurement": "EC50", "setting": "[8]", "result": 1.73, "unit": "µM"}, {"measurement": "EC50", "setting": "[9]", "result": 1.86, "unit": "µM"}]}, {"smiles": "COc1ccc(COCCC2NCCC23C(=O)Nc2ccccc23)cc1", "note": "(stereo unspecified)", "values": [{"measurement": "IC50", "setting": "[10]", "result": 10.6, "unit": "µM"}]}, {"smiles": "O=C1C=Cc2cc(O)c(O)cc2C12C(=O)C=Cc1cc(O)c(O)cc12", "values": [{"measurement": "IC50", "setting": "[11]", "result": 2.32, "unit": "µM"}]}, {"smiles": "CNCCc1cc(Br)c(OCCCNC(=O)N(C)CCc2cc(Br)c(OCCCNC(=O)C3=NO[C@]4(CC(Br)=C(OC)C(Br)=CO4)[C@@H]3O)c(Br)c2)c(Br)c1", "values": [{"measurement": "IC50", "setting": "[12]", "result": 1.03, "unit": "µg/mL"}, {"measurement": "IC50", "setting": "[13]", "result": 0.77, "unit": "µg/mL"}]}, {"smiles": "CCCCCCCCCCCCC[C@@H]1C[C@@H](O)C[C@]2(CCC3(C=CC(=O)C=C3)O2)O1", "note": "[ACULEATIN A]", "values": [{"measurement": "IC50", "setting": "[14]", "result": 0.18, "unit": "µM"}, {"measurement": "IC50", "setting": "[15]", "result": 0.2, "unit": "µM"}]}, {"smiles": "C[C@H]1[C@@H](O)O[C@@H]2O[C@@]3(C)CC[C@H]4[C@H](C)CC[C@@H]1[C@@]24OO3", "note": "[ARTENIMOL]", "values": [{"measurement": "IC90", "setting": "[16]", "result": 0.0027, "unit": "µg/mL"}]}]}
